According to US10100077B2, “6-aryl-9-glycosylpurines and use thereof” (UNIVERZITA PALACKEHO V OLOMOUCI, priority 2014, dated 2018):

System: Arabidopsis wild-type plants (Col-0) detached leaves
Assay: Differential gene expression study (RNA sequencing) in senescent detached leaves
Settings: for logFC AT1G02790 Polygalacturonase 4 (PGA4) / logFC AT1G05580 Cation/H(+) exchanger 23 (CHX23) / logFC AT1G10585 Basic helix-loop-helix (bHLH) DNA-binding superfamily protein / logFC AT1G15540 2-oxoglutarate and Fe(II)-dependent oxygenase superfamily protein / logFC AT1G19670 Chlorophyllase-1 (CLH1) / logFC AT1G55560 SKU5 similar 14 (SKS14) / logFC AT1G59860 17.6 kDa class I heat shock protein 1 (HSP17.6A) / logFC AT1G59950 NAD(P)-linked oxidoreductase superfamily protein / logFC AT1G75830 Defensin-like protein 1.1 (PDF1.1) / logFC AT1G76640 Calcium-binding EF-hand family protein (CML39) / logFC AT2G02010 Glutamate decarboxylase 4 (GAD4) / logFC AT2G04460 Transposable element gene / logFC AT2G18150 Peroxidase 15 (PER15) / logFC AT2G21900 WRKY transcription factor 59 (WRKY59) / logFC AT2G26010 Defensin-like protein 1.3 (PDF1.3) / logFC AT2G26020 Defensin-like protein 1.2B (PDF1.2B) / logFC AT2G26695 Ran BP2/NZF zinc finger-like superfamily protein / logFC AT2G28210 Alpha carbonic anhydrase 2 (ATACA2) / logFC AT2G37430 Zinc finger protein ZAT11 / logFC AT2G39030 L-ornithine N5-acetyltransferase (NATA1) / logFC AT2G47040 Pectin methylesterase Vanguard1 (VGD1) / logFC AT2G47050 Plant invertase/pectin methylesterase inhibitor superfamily protein / logFC AT3G05610 Pectinesterase/pectinesterase inhibitor 21 (PME21) / logFC AT3G07820 Pectin lyase-like superfamily protein / logFC AT3G09340 Transmembrane amino acid transporter family protein / logFC AT3G11340 UDP-Glycosyltransferase superfamily protein / logFC AT3G13400 SKU5 similar 13 (SKS13) / logFC AT3G28153 Transposable element gene / logFC AT3G28155 ARM repeat superfamily protein / logFC AT3G44830 Putative phospholipid: diacylglycerol acyltransferase 2 (PDAT2) / logFC AT3G62710 Glycosyl hydrolase family protein / logFC AT4G01390 TRAF-like family protein / logFC AT4G21830 Peptide methionine sulfoxide reductase B7 (MSRB7) / logFC AT4G22030 F-box domain, cyclin-like, F-box domain, Skp2-like protein / logFC AT4G22620 SAUR-like auxin-responsive family protein / logFC AT4G24350 Phosphorylase superfamily protein / logFC AT4G26010 Peroxidase 44 (PER44) / logFC AT4G31950 Cytochrome P450 82C3 (CYP82C3) / logFC AT4G35010 Beta-galactosidase 11 (BGAL11) / logFC AT4G37780 Myb domain protein 87 (MYB87) / logFC AT4G39320 Microtubule-associated protein-related / logFC AT5G03610 GDSL esterase/lipase / logFC AT5G12960 Putative glycosyl hydrolase / logFC AT5G44420 Defensin-like protein 1.2A (PDF1.2A) / logFC AT5G44430 Defensin-like protein 1.2C (PDF1.2C) / logFC AT5G45880 Pollen Ole e 1 allergen and extensin family protein / logFC AT5G52670 Copper transport family protein / logFC AT5G61160 Agmatine coumaroyltransferase (ACT) / logFC AT5G62720 Integral membrane HPP family protein / logFC AT5G63270 RPM1-interacting protein 4 (RIN4) family protein / number of downregulated genes (P≤0.05) / number of upregulated genes (P≤0.05): 10 μM; for number of downregulated genes (P≤0.05) / number of upregulated genes (P≤0.05): vs mock
Method: Comparative gene expression analysis in Arabidopsis model was performed to gain information about the reprogramming of gene transcription when senescent leaves were treated with 6-(3-methoxybenzylamino)-9-β-D-arabinofuranosylpurine (3MeOBAPA).
For isolation of total RNA, Arabidopsis wild-type plants (Col-0) were used, which were either treated with 3MeOBAPA or left untreated. Wild-type plants were grown in soil for 30 days, and then leaves of similar size and chlorophyll content were cut and immediately used for the treatment. At least 20 detached leaves were submerged in 1×MS medium supplemented with 10 μM 3MeOBAPA. Control samples were mock treated with DMSO only. After incubation for 6 h or 48 h in the dark, detached leaves were frozen in liquid nitrogen and used for RNA isolation; 150 mg of liquid nitrogen-ground material was used per isolation. cDNA sequencing libraries were prepared with the Illumina TruSeq Stranded mRNA LT Sample Prep Kit (Illumina, San Diego, Calif.) according to standard Illumina's protocols and sequenced on HiSeq 2500 apparatus (50 bp single-end reads). […] To gain insight into the molecular mechanism of 3MeOBAPA action in Arabidopsis we decided to analyze the gene expression patterns via comparison of mock (DMSO)-treated plants with those obtained after i) short time treatment with 3MeOBAPA (6 h) and ii) long time treatment (48 h). This comparison leads to identification of group of genes with similar kinetic of expression and helps to understand possible mechanism of regulation. For data analysis, we performed ab initio method where sequencing reads were mapped to the reference genome.

Compound: COc1cccc(CNc2ncnc3c2ncn3[C@@H]2O[C@H](CO)[C@@H](O)[C@@H]2O)c1 [6-(3-methoxybenzylamino)-9-β-D-arabinofuranosylpurine]
- logFC AT1G02790 Polygalacturonase 4 (PGA4) (6 h): 1.67
- logFC AT1G05580 Cation/H(+) exchanger 23 (CHX23) (6 h): 1.26
- logFC AT1G10585 Basic helix-loop-helix (bHLH) DNA-binding superfamily protein (6 h): 0.38
- logFC AT1G15540 2-oxoglutarate and Fe(II)-dependent oxygenase superfamily protein (6 h): 0.57
- logFC AT1G19670 Chlorophyllase-1 (CLH1) (6 h): 0.63
- logFC AT1G55560 SKU5 similar 14 (SKS14) (6 h): 1.71
- logFC AT1G59860 17.6 kDa class I heat shock protein 1 (HSP17.6A) (6 h): 0.48
- logFC AT1G59950 NAD(P)-linked oxidoreductase superfamily protein (6 h): 1.08
- logFC AT1G75830 Defensin-like protein 1.1 (PDF1.1) (6 h): 1.06
- logFC AT1G76640 Calcium-binding EF-hand family protein (CML39) (6 h): 0.78
- logFC AT2G02010 Glutamate decarboxylase 4 (GAD4) (6 h): 0.55
- logFC AT2G04460 Transposable element gene (6 h): 1.16
- logFC AT2G18150 Peroxidase 15 (PER15) (6 h): 0.68
- logFC AT2G21900 WRKY transcription factor 59 (WRKY59) (6 h): 0.54
- logFC AT2G26010 Defensin-like protein 1.3 (PDF1.3) (6 h): 1.47
- logFC AT2G26020 Defensin-like protein 1.2B (PDF1.2B) (6 h): 1.52
- logFC AT2G26695 Ran BP2/NZF zinc finger-like superfamily protein (6 h): 0.50
- logFC AT2G28210 Alpha carbonic anhydrase 2 (ATACA2) (6 h): 0.85
- logFC AT2G37430 Zinc finger protein ZAT11 (6 h): 0.42
- logFC AT2G39030 L-ornithine N5-acetyltransferase (NATA1) (6 h): 0.56
- logFC AT2G47040 Pectin methylesterase Vanguard1 (VGD1) (6 h): 2.80
- logFC AT2G47050 Plant invertase/pectin methylesterase inhibitor superfamily protein (6 h): 2.31
- logFC AT3G05610 Pectinesterase/pectinesterase inhibitor 21 (PME21) (6 h): 1.80
- logFC AT3G07820 Pectin lyase-like superfamily protein (6 h): 2.22
- logFC AT3G09340 Transmembrane amino acid transporter family protein (6 h): 0.55
- logFC AT3G11340 UDP-Glycosyltransferase superfamily protein (6 h): 0.51
- logFC AT3G13400 SKU5 similar 13 (SKS13) (6 h): 0.82
- logFC AT3G28153 Transposable element gene (6 h): 0.92
- logFC AT3G28155 ARM repeat superfamily protein (6 h): 0.59
- logFC AT3G44830 Putative phospholipid: diacylglycerol acyltransferase 2 (PDAT2) (6 h): 0.38
- logFC AT3G62710 Glycosyl hydrolase family protein (6 h): 1.35
- logFC AT4G01390 TRAF-like family protein (6 h): 0.79
- logFC AT4G21830 Peptide methionine sulfoxide reductase B7 (MSRB7) (6 h): 0.55
- logFC AT4G22030 F-box domain, cyclin-like, F-box domain, Skp2-like protein (6 h): 0.41
- logFC AT4G22620 SAUR-like auxin-responsive family protein (6 h): 0.46
- logFC AT4G24350 Phosphorylase superfamily protein (6 h): 0.64
- logFC AT4G26010 Peroxidase 44 (PER44) (6 h): 0.53
- logFC AT4G31950 Cytochrome P450 82C3 (CYP82C3) (6 h): 0.37
- logFC AT4G35010 Beta-galactosidase 11 (BGAL11) (6 h): 2.03
- logFC AT4G37780 Myb domain protein 87 (MYB87) (6 h): 0.41
- logFC AT4G39320 Microtubule-associated protein-related (6 h): 0.45
- logFC AT5G03610 GDSL esterase/lipase (6 h): 0.42
- logFC AT5G12960 Putative glycosyl hydrolase (6 h): 1.33
- logFC AT5G44420 Defensin-like protein 1.2A (PDF1.2A) (6 h): 1.58
- logFC AT5G44430 Defensin-like protein 1.2C (PDF1.2C) (6 h): 1.75
- logFC AT5G45880 Pollen Ole e 1 allergen and extensin family protein (6 h): 1.45
- logFC AT5G52670 Copper transport family protein (6 h): 0.57
- logFC AT5G61160 Agmatine coumaroyltransferase (ACT) (6 h): 1.13
- logFC AT5G62720 Integral membrane HPP family protein (6 h): 0.44
- logFC AT5G63270 RPM1-interacting protein 4 (RIN4) family protein (6 h): 0.56
- number of downregulated genes (P≤0.05) (6 h): 1119 genes
- number of upregulated genes (P≤0.05) (6 h): 1102 genes
- number of genes downregulated in both groups (6 h and 48 h overlap): 724 genes
- number of genes upregulated in both groups (6 h and 48 h overlap): 1102 genes
- logFC AT1G02790 Polygalacturonase 4 (PGA4) (48 h): 8.59
- logFC AT1G05580 Cation/H(+) exchanger 23 (CHX23) (48 h): 5.46
- logFC AT1G10585 Basic helix-loop-helix (bHLH) DNA-binding superfamily protein (48 h): 4.85
- logFC AT1G15540 2-oxoglutarate and Fe(II)-dependent oxygenase superfamily protein (48 h): 5.63
- logFC AT1G19670 Chlorophyllase-1 (CLH1) (48 h): 6.42
- logFC AT1G55560 SKU5 similar 14 (SKS14) (48 h): 8.75
- logFC AT1G59860 17.6 kDa class I heat shock protein 1 (HSP17.6A) (48 h): 5.47
- logFC AT1G59950 NAD(P)-linked oxidoreductase superfamily protein (48 h): 5.72
- logFC AT1G75830 Defensin-like protein 1.1 (PDF1.1) (48 h): 7.85
- logFC AT1G76640 Calcium-binding EF-hand family protein (CML39) (48 h): 7.06
- logFC AT2G02010 Glutamate decarboxylase 4 (GAD4) (48 h): 5.09
- logFC AT2G04460 Transposable element gene (48 h): 5.43
- logFC AT2G18150 Peroxidase 15 (PER15) (48 h): 7.22
- logFC AT2G21900 WRKY transcription factor 59 (WRKY59) (48 h): 5.81
- logFC AT2G26010 Defensin-like protein 1.3 (PDF1.3) (48 h): 8.23
- logFC AT2G26020 Defensin-like protein 1.2B (PDF1.2B) (48 h): 6.04
- logFC AT2G26695 Ran BP2/NZF zinc finger-like superfamily protein (48 h): 5.90
- logFC AT2G28210 Alpha carbonic anhydrase 2 (ATACA2) (48 h): 5.86
- logFC AT2G37430 Zinc finger protein ZAT11 (48 h): 4.96
- logFC AT2G39030 L-ornithine N5-acetyltransferase (NATA1) (48 h): 5.48
- logFC AT2G47040 Pectin methylesterase Vanguard1 (VGD1) (48 h): 5.89
- logFC AT2G47050 Plant invertase/pectin methylesterase inhibitor superfamily protein (48 h): 5.82
- logFC AT3G05610 Pectinesterase/pectinesterase inhibitor 21 (PME21) (48 h): 5.58
- logFC AT3G07820 Pectin lyase-like superfamily protein (48 h): 6.45
- logFC AT3G09340 Transmembrane amino acid transporter family protein (48 h): 8.54
- logFC AT3G11340 UDP-Glycosyltransferase superfamily protein (48 h): 6.60
- logFC AT3G13400 SKU5 similar 13 (SKS13) (48 h): 5.57
- logFC AT3G28153 Transposable element gene (48 h): 5.70
- logFC AT3G28155 ARM repeat superfamily protein (48 h): 6.06
- logFC AT3G44830 Putative phospholipid: diacylglycerol acyltransferase 2 (PDAT2) (48 h): 4.91
- logFC AT3G62710 Glycosyl hydrolase family protein (48 h): 5.26
- logFC AT4G01390 TRAF-like family protein (48 h): 6.24
- logFC AT4G21830 Peptide methionine sulfoxide reductase B7 (MSRB7) (48 h): 5.95
- logFC AT4G22030 F-box domain, cyclin-like, F-box domain, Skp2-like protein (48 h): 5.02
- logFC AT4G22620 SAUR-like auxin-responsive family protein (48 h): 5.05
- logFC AT4G24350 Phosphorylase superfamily protein (48 h): 6.45
- logFC AT4G26010 Peroxidase 44 (PER44) (48 h): 7.92
- logFC AT4G31950 Cytochrome P450 82C3 (CYP82C3) (48 h): 5.29
- logFC AT4G35010 Beta-galactosidase 11 (BGAL11) (48 h): 5.33
- logFC AT4G37780 Myb domain protein 87 (MYB87) (48 h): 6.88
- logFC AT4G39320 Microtubule-associated protein-related (48 h): 5.09
- logFC AT5G03610 GDSL esterase/lipase (48 h): 4.61
- logFC AT5G12960 Putative glycosyl hydrolase (48 h): 5.26
- logFC AT5G44420 Defensin-like protein 1.2A (PDF1.2A) (48 h): 8.15
- logFC AT5G44430 Defensin-like protein 1.2C (PDF1.2C) (48 h): 8.87
- logFC AT5G45880 Pollen Ole e 1 allergen and extensin family protein (48 h): 5.52
- logFC AT5G52670 Copper transport family protein (48 h): 6.03
- logFC AT5G61160 Agmatine coumaroyltransferase (ACT) (48 h): 5.05
- logFC AT5G62720 Integral membrane HPP family protein (48 h): 5.31
- logFC AT5G63270 RPM1-interacting protein 4 (RIN4) family protein (48 h): 7.11
- number of downregulated genes (P≤0.05) (48 h): 7095 genes
- number of upregulated genes (P≤0.05) (48 h): 7509 genes
